Columns and labels:
human Nav1.7 = target: T1, human Nav1.7 (Homo sapiens, UniProt Q15858); assay: PatchXpress automated patch-clamp, inactivated state block of Nav1.7; assay type: cell-based; conditions: channels stably expressed in HEK 293 cells, 22° C., read-out: potency for the Nav 1.7 sodium ion channel (as measured by PatchXpress)
T1 construct: expressed in transfected cells
Description: (§1) Compounds were tested on human Nav1.7 and Nav1.5 channels stably expressed in HEK 293 cells. Activity toward Nav 1.7 and Nav 1.5 channels was assessed using the following assay methodology.
(§2) Sodium Current Measurements on the PatchXpress 7000®:
(§3) To measure inactivated state block of sodium channels, test compounds were characterized in an automated PatchXpress® assay (Molecular Devices) using a double-pulse protocol on human Nav1.7 and Nav1.5 channels stably expressed in HEK 293 cells. Cells were held at a potential 20 mV negative to V0.5 inact. An 8000 ms pre-pulse 7 mV positive to V0.5 inact was given followed by a hyperpolarizing 2 ms pulse to −120 mV and a 20 ms test pulse to −20 mV. Protocol was applied to cells in the absence, presence of compound and after washout. The temperature of PatchXpress instruments was maintained at 22° C. The following recording solutions were used. Internal solution (mM): 30 CsCl, 5 HEPES, 10 EGTA, 120 CsF, 5 NaF, 2 MgCl2. External solution (mM): 120 NMDG, 40 NaCl, 1 KCl, 0.5 MgCl2, 5 HEPES, 2.7 CaCl2.
(§4) For all electrophysiology experiments, offline analysis was used to correct for current rundown and to determine percent inhibition as a function of drug concentration. IC50 values were determined by fitting to the Hill equation.

human Nav1.5 = target: T2, human Nav1.5 (Homo sapiens, UniProt Q14524); assay: PatchXpress automated patch-clamp, inactivated state block of Nav1.5 (selectivity); assay type: cell-based; conditions: determined by PatchXpress measurement, HEK 293 cells
T2 construct: expressed in transfected cells
Description: as §1, §2, §3, §4

T2 sequence (Q14524 whole entry): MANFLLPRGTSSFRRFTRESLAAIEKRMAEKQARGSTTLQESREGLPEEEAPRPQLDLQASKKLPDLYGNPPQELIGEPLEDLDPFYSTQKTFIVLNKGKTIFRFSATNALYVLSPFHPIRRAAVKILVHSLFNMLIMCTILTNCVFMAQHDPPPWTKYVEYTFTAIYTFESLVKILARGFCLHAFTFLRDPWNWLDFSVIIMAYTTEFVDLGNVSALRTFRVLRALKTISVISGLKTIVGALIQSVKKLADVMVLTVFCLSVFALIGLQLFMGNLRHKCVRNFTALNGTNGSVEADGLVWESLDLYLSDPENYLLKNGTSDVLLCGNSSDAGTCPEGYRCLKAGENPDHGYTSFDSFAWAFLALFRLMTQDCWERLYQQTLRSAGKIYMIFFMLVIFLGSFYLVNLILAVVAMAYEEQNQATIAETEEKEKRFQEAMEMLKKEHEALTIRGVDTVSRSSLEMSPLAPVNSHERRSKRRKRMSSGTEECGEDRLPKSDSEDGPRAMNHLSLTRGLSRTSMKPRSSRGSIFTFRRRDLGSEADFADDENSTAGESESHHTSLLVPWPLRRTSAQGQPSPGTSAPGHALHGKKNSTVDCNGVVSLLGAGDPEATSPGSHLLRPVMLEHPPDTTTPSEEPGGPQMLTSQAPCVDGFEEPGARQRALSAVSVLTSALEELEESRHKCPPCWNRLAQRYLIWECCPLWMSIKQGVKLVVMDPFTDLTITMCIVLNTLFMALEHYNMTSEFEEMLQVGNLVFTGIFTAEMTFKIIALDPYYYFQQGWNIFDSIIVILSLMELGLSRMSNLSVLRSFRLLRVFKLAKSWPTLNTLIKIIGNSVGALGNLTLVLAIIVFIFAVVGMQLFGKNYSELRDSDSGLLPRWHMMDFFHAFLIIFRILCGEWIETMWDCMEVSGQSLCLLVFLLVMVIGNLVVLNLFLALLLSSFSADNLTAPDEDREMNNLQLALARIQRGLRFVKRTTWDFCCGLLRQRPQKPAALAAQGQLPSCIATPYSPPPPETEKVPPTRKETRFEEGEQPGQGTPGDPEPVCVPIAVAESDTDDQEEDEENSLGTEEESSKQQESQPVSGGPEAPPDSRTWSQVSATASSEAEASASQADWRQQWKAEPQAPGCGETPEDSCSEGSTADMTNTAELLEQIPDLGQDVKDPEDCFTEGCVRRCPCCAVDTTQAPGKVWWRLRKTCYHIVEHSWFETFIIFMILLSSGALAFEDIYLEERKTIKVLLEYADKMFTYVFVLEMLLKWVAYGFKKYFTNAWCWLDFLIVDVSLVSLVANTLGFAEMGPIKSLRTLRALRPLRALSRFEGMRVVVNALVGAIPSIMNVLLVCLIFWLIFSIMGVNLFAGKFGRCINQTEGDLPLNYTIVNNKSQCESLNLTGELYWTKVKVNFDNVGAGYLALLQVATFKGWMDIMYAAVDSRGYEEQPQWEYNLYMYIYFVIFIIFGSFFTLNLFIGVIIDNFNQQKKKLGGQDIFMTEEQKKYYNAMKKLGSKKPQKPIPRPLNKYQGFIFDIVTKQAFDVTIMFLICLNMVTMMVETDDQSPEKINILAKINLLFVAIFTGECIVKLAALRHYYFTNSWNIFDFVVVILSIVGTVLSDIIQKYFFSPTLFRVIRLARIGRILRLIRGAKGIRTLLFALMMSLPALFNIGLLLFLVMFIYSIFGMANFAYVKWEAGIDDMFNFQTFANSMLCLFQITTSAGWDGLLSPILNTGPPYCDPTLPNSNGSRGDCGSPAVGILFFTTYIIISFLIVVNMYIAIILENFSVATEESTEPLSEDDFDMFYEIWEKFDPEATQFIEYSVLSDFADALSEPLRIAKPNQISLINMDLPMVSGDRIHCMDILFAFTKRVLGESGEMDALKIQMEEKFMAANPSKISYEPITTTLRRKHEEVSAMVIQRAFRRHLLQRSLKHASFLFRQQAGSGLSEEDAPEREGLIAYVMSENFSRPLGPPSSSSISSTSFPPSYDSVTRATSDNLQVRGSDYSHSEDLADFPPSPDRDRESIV
T1 sequence (Q15858 whole entry): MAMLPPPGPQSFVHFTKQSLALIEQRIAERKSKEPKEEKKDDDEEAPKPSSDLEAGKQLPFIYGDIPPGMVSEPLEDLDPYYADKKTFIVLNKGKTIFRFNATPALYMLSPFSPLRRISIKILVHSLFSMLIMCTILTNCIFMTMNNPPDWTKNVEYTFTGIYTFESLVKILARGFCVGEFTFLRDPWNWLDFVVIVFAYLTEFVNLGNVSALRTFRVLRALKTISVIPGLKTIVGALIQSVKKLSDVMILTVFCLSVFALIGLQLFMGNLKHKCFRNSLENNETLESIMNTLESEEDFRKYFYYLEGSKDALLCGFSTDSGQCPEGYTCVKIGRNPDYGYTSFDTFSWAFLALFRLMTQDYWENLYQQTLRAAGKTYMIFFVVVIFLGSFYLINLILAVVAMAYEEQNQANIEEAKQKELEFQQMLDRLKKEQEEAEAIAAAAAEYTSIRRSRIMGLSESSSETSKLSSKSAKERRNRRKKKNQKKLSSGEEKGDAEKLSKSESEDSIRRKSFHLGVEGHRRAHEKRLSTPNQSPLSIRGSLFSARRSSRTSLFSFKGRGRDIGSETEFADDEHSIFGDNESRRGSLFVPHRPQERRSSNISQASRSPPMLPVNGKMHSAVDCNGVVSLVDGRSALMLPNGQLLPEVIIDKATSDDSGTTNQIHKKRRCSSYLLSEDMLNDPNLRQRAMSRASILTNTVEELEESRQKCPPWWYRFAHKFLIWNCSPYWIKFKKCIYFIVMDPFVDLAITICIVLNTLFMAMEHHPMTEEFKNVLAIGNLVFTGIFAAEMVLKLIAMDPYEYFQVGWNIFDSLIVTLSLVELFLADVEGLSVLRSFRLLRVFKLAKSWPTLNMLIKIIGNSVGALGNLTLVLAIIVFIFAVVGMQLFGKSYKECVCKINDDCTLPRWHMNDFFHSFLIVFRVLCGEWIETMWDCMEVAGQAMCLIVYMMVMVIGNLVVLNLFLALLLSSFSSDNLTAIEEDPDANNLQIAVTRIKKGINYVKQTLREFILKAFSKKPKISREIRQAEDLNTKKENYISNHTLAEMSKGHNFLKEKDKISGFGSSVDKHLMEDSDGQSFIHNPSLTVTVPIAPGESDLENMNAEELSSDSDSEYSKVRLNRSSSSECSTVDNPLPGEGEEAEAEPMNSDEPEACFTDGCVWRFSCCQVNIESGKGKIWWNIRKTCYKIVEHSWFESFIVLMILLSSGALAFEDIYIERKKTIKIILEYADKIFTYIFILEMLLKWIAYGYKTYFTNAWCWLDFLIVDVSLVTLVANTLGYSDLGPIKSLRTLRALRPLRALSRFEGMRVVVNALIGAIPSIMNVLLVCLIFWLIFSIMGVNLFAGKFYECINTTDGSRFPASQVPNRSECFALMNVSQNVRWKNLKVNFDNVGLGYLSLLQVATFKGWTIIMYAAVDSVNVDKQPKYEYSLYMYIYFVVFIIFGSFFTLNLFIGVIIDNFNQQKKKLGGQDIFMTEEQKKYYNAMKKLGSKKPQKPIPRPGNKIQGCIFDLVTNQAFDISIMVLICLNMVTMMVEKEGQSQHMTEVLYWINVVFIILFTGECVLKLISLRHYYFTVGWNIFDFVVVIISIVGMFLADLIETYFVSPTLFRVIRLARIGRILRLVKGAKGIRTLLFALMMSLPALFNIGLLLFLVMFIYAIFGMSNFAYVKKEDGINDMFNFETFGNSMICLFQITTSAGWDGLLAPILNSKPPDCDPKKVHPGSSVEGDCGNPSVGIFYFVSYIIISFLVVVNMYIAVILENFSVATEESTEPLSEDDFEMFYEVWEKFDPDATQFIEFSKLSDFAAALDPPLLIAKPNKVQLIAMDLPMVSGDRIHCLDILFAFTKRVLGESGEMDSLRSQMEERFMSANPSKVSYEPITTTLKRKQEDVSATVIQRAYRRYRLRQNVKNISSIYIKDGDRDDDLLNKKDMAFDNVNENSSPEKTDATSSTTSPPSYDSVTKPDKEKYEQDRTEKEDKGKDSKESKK

IC50 (human Nav1.7)	Compound	ratio of Nav1.7 potency:Nav 1.5 potency (human Nav1.5)
27 nM	CC1CN2CCCC2(CNc2ccc(S(=O)(=O)Nc3nccs3)cc2C#N)C1 (racemic) [Ex4-8, 3-cyano-4-{[((2S,7aR and 2R,7aS)-2-methyltetrahydro-1H-pyrrolizin-7a(5H)-yl)methyl]amino}-N-(1,3-thiazol-2-yl)benzenesulfonamide]	1109
176 nM	O=S(=O)(Nc1ncc(F)s1)c1ccc(NCC23CCCN2CC(F)C3)c(Cl)c1 (single isomer, unassigned) [Ex9-14-B, 3-chloro-4-((((2S,7aR or 2R,7aS)-2-fluoro-hexahydro-1H-pyrrolizin-7a-yl)methyl)amino)-N-(5-fluorothiazol-2-yl)-benzenesulfonamide]	171
21 nM	COc1ccc([C@H]2CN3CCC[C@]3(CNc3cc(F)c(S(=O)(=O)Nc4nccs4)cc3Cl)C2)cc1 (single isomer, unassigned) [Ex16-12-B]	708
62 nM	CCOC(=O)c1cnc(NS(=O)(=O)c2cc(Cl)c(NCC34CCCN3CCC4)cc2F)s1 [Ex1-16, ethyl 2-(5-chloro-2-fluoro-4-(((hexahydro-1H-pyrrolizin-7a-yl)methyl)amino)phenylsulfonamido)thiazole-5-carboxylate]	484
80 nM	O=S(=O)(Nc1ncc(F)s1)c1ccc(NCC23CCCN2CC(F)C3)c(C(F)(F)F)c1 (single isomer, unassigned) [Ex9-12-B, 4-((((2S,7aR or 2R,7aS)-2-fluoro-hexahydro-1H-pyrrolizin-7a-yl)methyl)amino)-N-(5-fluorothiazol-2-yl)-3-(trifluoromethyl)-benzenesulfonamide]	300
10 nM	O=S(=O)(Nc1nccs1)c1cc(Cl)c(NC[C@]23CCCN2CC2(C3)OCCO2)cc1F (single isomer, unassigned) [Ex10-7-A]	3074
19 nM	CCc1cc(S(=O)(=O)Nc2nccs2)c(F)cc1NCC12CCCN1CCC2 [Ex18-7, 5-ethyl-2-fluoro-4-(((hexahydro-1H-pyrrolizin-7a-yl)-methyl)amino)-N-(thiazol-2-yl)-benzenesulfonamide]	672
9 nM	CCc1cc(S(=O)(=O)Nc2nccs2)c(F)cc1NC[C@@]12CCCN1C[C@H](Cc1ccc(OC)cc1)C2 (single isomer, unassigned) [Ex18-5-A]	315
40 nM	CCc1cc(S(=O)(=O)Nc2nccs2)c(F)cc1NC[C@]12CCCN1C[C@@H](Cc1ccc(OC)cc1)C2 (single isomer, unassigned) [Ex18-5-B]	359
14 nM	CC1(C)CN2CCCC2(CNc2cc(F)c(S(=O)(=O)Nc3ncc(Cl)s3)cc2Cl)C1 (single isomer, unassigned) [Ex8-19-A, (R or S) 5-chloro-N-(5-chlorothiazol-2-yl)-4-(((2,2-dimethylhexahydro-1H-pyrrolizin-7a-yl)methyl)amino)-2-fluorobenzenesulfonamide]	812
52 nM	CC(Nc1cc(F)c(S(=O)(=O)Nc2nccs2)cc1Cl)C12CCCN1CCC2 (single isomer, unassigned) [Ex5-8, 5-chloro-2-fluoro-4-{[(R or S)1-(tetrahydro-1H-pyrrolizin-7a(5H)-yl)ethyl]amino}-N-(1,3-thiazol-2-yl)benzenesulfonamide]	407
144 nM	O=S(=O)(Nc1ncc(F)s1)c1ccc(NCC23CCCN2CC(F)C3)c(Cl)c1 (single isomer, unassigned) [Ex9-14-A, 3-chloro-4-((((2R,7aS or 2S,7aR)-2-fluoro-hexahydro-1H-pyrrolizin-7a-yl)-methyl)amino)-N-(5-fluorothiazol-2-yl)-benzenesulfonamide]	208
14 nM	O=S(=O)(Nc1nccs1)c1ccc(NCC23CCCN2CCC3)c(C(F)(F)F)c1 [Ex1-20, 4-(((hexahydro-1H-pyrrolizin-7a-yl)methyl)amino)-N-(thiazol-2-yl)-3-(trifluoromethyl)benzene-sulfonamide]	765

Further lines, the compound ahead of its results:

Compound	IC50 (human Nav1.7)	ratio of Nav1.7 potency:Nav 1.5 potency (human Nav1.5)
O=S(=O)(Nc1ccc(F)cn1)c1cc(Cl)c(NCC23CCCN2CCC3)cc1F [Ex3-7, 5-chloro-2-fluoro-N-(5-fluoropyridin-2-yl)-4-[(tetrahydro-1H-pyrrolizin-7a(5H)-ylmethyl)amino]benzene-sulfonamide]	320 nM	94
CC1(C)CN2CCCC2(CNc2ccc(S(=O)(=O)Nc3nccs3)cc2C(F)(F)F)C1 (single isomer, unassigned) [Ex8-23-A, (R or S) 4-(((2,2-dimethylhexahydro-1H-pyrrolizin-7a-yl)methyl)-amino)-N-(thiazol-2-yl)-3-(trifluoromethyl)benzene-sulfonamide]	172 nM	175
COc1ccc(CC2CN3CCCC3(CNc3cc(F)c(S(=O)(=O)Nc4ncc(F)s4)cc3Cl)C2)cc1 (single isomer, unassigned) [Ex15-12-B, 5-chloro-2-fluoro-N-(5-fluorothiazol-2-yl)-4-((((2S,7aR or 2R,7aS)-2-(4-methoxybenzyl)hexahydro-1H-pyrrolizin-7a-yl)methyl)amino)benzene-sulfonamide]	66 nM	99
COc1ccc(CC2CN3CCCC3(CNc3cc(F)c(S(=O)(=O)Nc4ncc(F)s4)cc3Cl)C2)cc1 (single isomer, unassigned) [Ex15-12-A, 5-chloro-2-fluoro-N-(5-fluorothiazol-2-yl)-4-((((2R,7aS or 2S,7aR)-2-(4-methoxybenzyl)hexahydro-1H-pyrrolizin-7a-yl)-methyl)amino)benzene-sulfonamide]	8 nM	282
O=S(=O)(Nc1nccs1)c1cc(Cl)c(NC[C@@]23CCCN2CC2(CC2)C3)cc1F (single isomer, unassigned) [Ex13-10-A]	126 nM	113
O=S(=O)(Nc1ncc(Cl)s1)c1cc(Cl)c(NCC23CCCN2CC2(C3)OCCO2)cc1F (single isomer, unassigned) [Ex10-9-B, (R or S)-5-chloro-N-(5-chloro-thiazol-2-yl)-2-fluoro-4-(((hexahydrospiro[[1,3]-dioxolane-2,2′-pyrrolizin]-7a′-yl)-methyl)amino)-benzenesulfonamide]	108 nM	277
CCc1cc(S(=O)(=O)Nc2nccs2)c(F)cc1NCC12CCCN1CC(C)(C)C2 (single isomer, unassigned) [Ex18-9-A, (S or R)-4-(((2,2-dimethylhexahydro-1H-pyrrolizin-7a-yl)-methyl)-amino)-5-ethyl-2-fluoro-N-(thiazol-2-yl)-benzenesulfonamide]	55 nM	548
C[C@@H]1CC[C@@]2(CNc3cc(F)c(S(=O)(=O)Nc4nccs4)cc3Cl)CCCN12 (single isomer, unassigned) [Ex11-8-B]	6 nM	2533
O=S(=O)(Nc1nccs1)c1cc(Cl)c(NCC23CCCN2C(CF)CC3)cc1F (racemic) [Ex14-10, 5-chloro-2-fluoro-4-((((3S,7aS and 3R,7aR)-3-(fluoromethyl)hexahydro-1H-pyrrolizin-7a-yl)methyl)amino)-N-(thiazol-2-yl)benzenesulfonamide]	59 nM	509
N#Cc1cc(NCC23CCCN2CCC3)c(Cl)cc1S(=O)(=O)Nc1nccs1 [Ex12-6, 5-chloro-2-cyano-4-(((hexahydro-1H-pyrrolizin-7a-yl)methyl)amino)-N-(thiazol-2-yl)benzenesulfonamide]	95 nM	180
N#Cc1cc(S(=O)(=O)Nc2cccc(F)n2)ccc1NCC12CCCN1CCC2 [Ex2-3, 3-cyano-N-(6-fluoropyridin-2-yl)-4-[(tetrahydro-1H-pyrrolizin-7a(5H)-ylmethyl)amino]benzene-sulfonamide]	168 nM	18
